In patent publication US20230364205A1, “COMPOSITIONS AND METHODS FOR TREATING SERRATED COLORECTAL CANCER” (SANFORD BURNHAM PREBYS MEDICAL DISCOVERY INSTITUTE, priority 2020, published 2023):
Entries after “also recorded” stand apart in the source; their conditions may differ.

Legend:
WT organoids = assay: interferon response of WT small intestine organoids to 5-AZA-CdR; assay type: cell-based, mouse
Experimental: (§1) For generation of small intestine organoids, organoids were collected in ice-cold TrypLE solution (e.g., Life Technologies) to remove Matrigel, then pipetted 5 cycles and incubated 5 min at 37° C. to obtain single-cell suspension. Cells were washed twice in PBS 3% FBS and resuspended at room temperature with PBS with 100 μg/ml DNase I for 10 min before staining with anti-H-2Kb (clone AF6-88.5.5.3; eBioscience). For antigen presentation in MODE-K cells, cells were washed in PBS, trypsinized and wash with warm medium. Then, cells were resuspended and stained with anti-H-2Kk (clone 36-7-5; BioLegend) and anti-H-2Dk (clone 15-5-5; BD Pharmingen). Dead cells were excluded after 7-AAD staining. All flow cytometry experiments were performed on a BD LSRFortessa 14-colors analyzer at the Sanford Burnham Prebys Medical Discovery Institute Shared FACS Facility and flow cytometry data were analyzed using FlowJo software (Tree Star Inc.).
(§2) Intestinal epithelial cell […] isolation was performed as described previously Llado et al., Repression of Intestinal Stem Cell Function and Tumorigenesis through Direct Phosphorylation of β-catenin and Yap by PKCζ. Cell Reports (2015) 10,740-754, with some modification. […] Adenoma fragments were counted after isolation and a total of 250-500 fragments were mixed with 100 μl of growth factor reduced-Matrigel and plated in 12- or 24-well plates. […]

ZKO organoids = assay: interferon response of ZKO (PKCζ-lacking) small intestine organoids to 5-AZA-CdR; assay type: cell-based, mouse
Experimental: as §1, §2

DKO^IEC mouse tumors = assay: TGF-βR1-specific inhibition experiment (galunisertib) in DKO^IEC mice; assay type: in vivo
Experimental: For CD8+ T cell depletion (FIG. 4, Panels A-L), 10-week-old LKO^IEC mice were injected intraperitoneally with 200 μg of anti-CD8 antibody (clone 2.43) or control IgG twice a week for 5 weeks until they were sacrificed. For the TGF-βR1-specific inhibition experiment, 10-week-old DKO^IEC mice were treated twice a day with a dose of 10 mg of galunisertib (Tauriello et al., 2018) per os for 6 weeks until they were sacrificed. Control mice were treated with vehicle. For checkpoint immunotherapy, either 10-week-old or 13-week-old DKO^IEC mice were injected intraperitoneally with a dose of 10 mg/kg (body mass) of anti-PD-L1 antibody (clone 6E11) twice a week for 3 weeks until they were sacrificed. For the combination therapy of anti-PD-L1 antibody and TGF-βR1-specific inhibitor, 23-week-old DKO^IEC mice were treated twice a day with a dose of 10 mg of galunisertib per os and injected intraperitoneally with a dose of 10 mg/kg (body mass) of anti-PD-L1 antibody twice a week for 3 weeks until they were sacrificed. Anti-PD-L1 antibody was provided by de Sauvage FJ (Genentech).
Organs were isolated, rinsed in ice-cold PBS, fixed in 10% neutral buffered formalin overnight at 4° C., dehydrated, and embedded in paraffin. Sections (5 μm) were stained with hematoxylin and eosin (H&E). For immunohistochemistry, sections were deparaffinized, rehydrated, and then treated for antigen retrieval. After blocking in Protein Block Serum-Free solutions (DAKO), tissues were incubated with primary antibody overnight at 4° C. followed by incubation with biotinylated secondary antibody. Endogenous peroxidase was quenched in 3% H2O2 in water for 10 min at room temperature. Antibodies were visualized with avidin/biotin complex (e.g., Vectastain Elite; Vector Laboratories) using diaminobenzidine as the chromogen. For immunofluorescence, fresh frozen organs were embedded in Tissue-Tek OCT compound (e.g., Sakura) and section of 10 μm were fixed in methanol, washed with PBS and then incubated with the primary antibodies. Washed sections were incubated with Alexa-conjugated secondary antibodies (e.g., Life Technologies) and examined with a Zeiss LSM 710 NLO Confocal Microscope. In situ hybridization for murine Ereg was carried out using RNAscope Multiplex Fluorescent Assay kit (Advanced Cell Diagnostics) following manufacturer's instructions. The probe corresponding to CDS region of murine Ereg (Accession #: NM_007950.2, probe region: 116-1496; Advanced Cell Diagnostics; Cat #: 437981). Cell death was analyzed using the In-Situ Cell Death Detection kit, TMR red (Thermo) for TUNEL. Masson's Trichrome staining was carried out following manufacturer's instructions (Sigma HT15-1KT).
Flow cytometry experiments were performed using fresh small intestinal tissue and organoid preparations. For the analyses of small intestinal tissue, a half part of duodenum, jejunum, and ileum was used for quantitative flow cytometry analysis of immune cell population of lamina propria. Briefly, small intestines were rinsed in cold PBS, minced into small pieces, incubated in HBSS with EDTA (5 mM) and digested with collagenase (0.05 mg/ml) for 30 min at 37° C., followed by a discontinuous Percoll separation method (40 and 75%) to purify immune cells. The cells concentrated at the interface were collected and washed in cold PBS. Red blood cells were removed with lysing buffer (BD Pharm Lyse) and live cells were counted using Trypan blue and then saturated with mouse Fc Block (purified anti-mouse CD16/CD32; 1:50; clone 2.4G2; BD Pharmingen) 30 min at 4° C. before incubating with specific dyed antibodies.
For IL-17A intracellular staining, cells were pretreated with 50 ng/ml of phorbolmyristate acetate and 500 ng/ml of ionomycin in the presence of 10 μg/ml of brefeldin A for 3 hr at 37° C. 5% CO2. […]

[1] = tested on: serrated aPKC-DKO^IEC tumors; assay: PVHA treatment of aPKC-DKO^IEC mice; assay type: in vivo, mouse
Experimental: Mice treatment with PVHA: For the hyaluronidase-specific inhibition experiment, 11-week-old aPKC-DKO^IEC mice were injected intravenously twice per week with a low dose of 0.0375 mg or high dose of 0.2 mg/Kg of PVHA (Halozyme) for 3 weeks until they were sacrificed. Control mice were treated with vehicle.
Histology, immunohistochemistry: Organs were isolated, rinsed in ice-cold PBS, fixed in 10% neutral buffered formalin overnight at 4° C., dehydrated, and embedded in paraffin. For Masson TriChrome staining, the sections (5 μm) were deparaffinized, rehydrated, and then stained with the Trichrome Stain (Masson) Kit (Sigma-Aldrich, #HT15) following the manufacturer's instructions. For hyaluronan staining, sections (5 μm) were deparaffinized, rehydrated, and then incubated with biotinylated hyaluronan binding protein (Millipore Sigma, #385911) overnight at 4° C., followed by incubation with streptavidin HRP conjugate (Invitrogen, #434323). Staining was developed using diaminobenzidine. For CD8 staining, sections (5 μm) were deparaffinized, rehydrated, and then treated for antigen retrieval (Citrate, pH6) with heat. After blocking in Protein Block Serum-Free solutions (DAKO), tissues were incubated with primary antibody (anti-mouse CD8 (BD, #557654) overnight at 4° C. followed by incubation with biotinylated secondary antibody. Endogenous peroxidase was quenched in 3% H2O2 in water for 10 min at room temperature. Antibodies were visualized with avidin/biotin complex (Vectastain Elite; Vector Laboratories) using diaminobenzidine as the chromogen.

[2] = 3 μM for 24 hours, then drug-free culture, qRT-PCR
[3] = 10-week-old DKO^IEC mice, 10 mg per os twice a day for 6 weeks
[4] = aPKC-DKO^IEC mice, i.v. twice per week for 3 weeks from week 11

Molecule: Nc1ncn([C@H]2C[C@H](O)[C@@H](CO)O2)c(=O)n1 [5-AZA-CdR, 5-aza-2-deoxycytidine]
- expression of interferon-responsive genes Irf7, Oas1a, Isg15, and Cxcl10 (WT organoids; [2]): robustly induced
- MHC class I long-chain H-2K^b on the surface (WT organoids; flow cytometry): upregulated
- expression of interferon-responsive genes Irf7, Oas1a, Isg15, and Cxcl10 (ZKO organoids; [2]): severely abrogated
- MHC class I long-chain H-2K^b on the surface (ZKO organoids; flow cytometry): but not on ZKO organoids

Molecule: Cc1cccc(-c2nn3c(c2-c2ccnc4ccc(C(N)=O)cc24)CCC3)n1 [galunisertib]
- incidence of invasive cancer (DKO^IEC mouse tumors; [3]): reduced
- progression of SSA/P to the adenocarcinoma stage (DKO^IEC mouse tumors; [3]): suppressed
- tumor load (DKO^IEC mouse tumors; [3]): did not reduce
- tumor number (DKO^IEC mouse tumors; [3]): did not reduce
- tumor size (DKO^IEC mouse tumors; [3]): did not reduce
- proportion of PD-L1+/CD45+ cells infiltrating DKO^IEC tumors (DKO^IEC mouse tumors; CD45/PD-L1 staining): not affected
- collagen deposition (DKO^IEC mouse tumors; Masson's trichrome staining of small intestinal tumors, DKO^IEC mice): inhibition
- proportion of CD8+ T cells (DKO^IEC mouse tumors; flow cytometry, DKO^IEC tumors): did not significantly change
- proportion of CD11b+ myeloid cells (DKO^IEC mouse tumors; flow cytometry, DKO^IEC tumors): did not significantly change
- proportion of Th17 cells in the tumors (DKO^IEC mouse tumors; flow cytometry, DKO^IEC tumors): reduction
- proportion of Treg cells (DKO^IEC mouse tumors; flow cytometry, DKO^IEC tumors): did not significantly change
- expression of TGF-β-responsive genes, such as Angptl2, Cdkn2b, Il11, and Ereg (DKO^IEC mouse tumors; qRT-PCR mRNA levels, DKO^IEC mice): reduced expression
- stromal phospho-SMAD2 (DKO^IEC mouse tumors; staining of small intestinal tumors, DKO^IEC mice): inhibition

Molecule: Pegvorhyaluronidase alfa [PVHA]
- progression of SSA/Ps to the adenocarcinoma stage ([1]; 11-week-old aPKC-DKO^IEC mice, i.v. twice per week for 3 weeks, low and high dose): suppressed
- number of CD8+ T cells stained in the tumor tissue (infiltration of CD8+ T cells) ([1]; CD8 staining of small intestinal tumors, compared to vehicle-treated samples): substantially increased; also recorded: increases
- collagen deposition in the tumors ([1]; Masson trichrome staining of small intestinal tumors): reduced
- tumor load [1, 4]: reduced
- tumor number [1, 4]: reduced
- tumor size [1, 4]: reduced
- serrated tumors in aPKC-DKO^IEC mice ([1]; figure legends FIG. 17 and FIG. 18): reduces
- incidence of invasive cancer ([1]; high dose of 0.2 mg/Kg, i.v. twice per week for 3 weeks from week 11): reduced
- tumor burden ([1]; high dose of PVHA): reduce tumor burden substantially
- hyaluronan deposition in the tumors ([1]; hyaluronan staining of small intestinal tumors, low dose of PVHA (0.0375 mg/kg)): reduced
- incidence of invasive cancer ([1]; low dose of 0.0375 mg, i.v. twice per week for 3 weeks from week 11): reduced
- tumor burden ([1]; low dose of PVHA): reduce tumor burden substantially
